Results reported in patent publication US20080114007A1 (priority 2006, published 2008).

Target: CSF-1R (Homo sapiens, UniProt P07333)
Experiment: Peptide (non-phosphorylated) assay, fluorescence polarization competition immunoassay
Assay type: biochemical
Settings: 0.7 nM CSF-1R, 308 μM SYEGNSYTFIDPTQ peptide, 1 mM ATP, 80 min; mean of at least three determinations; read-out: c-fms Peptide IC50
How it was run: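 Human CSF-1R kinase reaction started with ATP and run 80 min at room temperature, then stopped with EDTA. Phosphopeptide detected by fluorescence polarization competition using anti-phosphotyrosine antibody and PTK green tracer after 30 min. Controls used 4% DMSO, with EDTA added before reaction start for positive controls.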

Sequence of CSF-1R (P07333 20-972): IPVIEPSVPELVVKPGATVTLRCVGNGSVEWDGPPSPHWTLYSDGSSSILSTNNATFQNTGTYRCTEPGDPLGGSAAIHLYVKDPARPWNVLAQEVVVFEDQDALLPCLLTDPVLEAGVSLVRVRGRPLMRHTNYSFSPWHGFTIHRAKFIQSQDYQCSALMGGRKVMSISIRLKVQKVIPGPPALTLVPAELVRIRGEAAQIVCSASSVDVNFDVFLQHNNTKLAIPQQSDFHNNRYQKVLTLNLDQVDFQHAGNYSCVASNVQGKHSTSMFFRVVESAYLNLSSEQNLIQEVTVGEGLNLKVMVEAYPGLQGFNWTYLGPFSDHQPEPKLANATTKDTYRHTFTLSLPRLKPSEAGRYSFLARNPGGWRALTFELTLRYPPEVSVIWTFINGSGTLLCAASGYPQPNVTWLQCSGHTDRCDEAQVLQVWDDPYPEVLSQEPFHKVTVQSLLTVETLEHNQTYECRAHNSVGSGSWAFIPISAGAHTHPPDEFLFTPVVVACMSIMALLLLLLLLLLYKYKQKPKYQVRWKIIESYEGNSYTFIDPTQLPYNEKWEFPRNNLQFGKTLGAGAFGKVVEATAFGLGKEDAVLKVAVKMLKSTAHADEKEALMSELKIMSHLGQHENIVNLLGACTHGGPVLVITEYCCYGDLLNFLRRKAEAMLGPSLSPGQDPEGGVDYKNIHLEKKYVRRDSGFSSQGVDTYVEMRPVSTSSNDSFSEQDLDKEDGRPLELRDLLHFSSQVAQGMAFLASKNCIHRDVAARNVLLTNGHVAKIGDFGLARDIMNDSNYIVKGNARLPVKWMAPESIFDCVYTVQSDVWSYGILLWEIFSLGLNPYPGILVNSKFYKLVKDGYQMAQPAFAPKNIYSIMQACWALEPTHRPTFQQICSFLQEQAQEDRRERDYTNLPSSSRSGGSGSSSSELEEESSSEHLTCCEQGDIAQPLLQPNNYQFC

Row | Compound | IC50
1 | CONC(=O)c1cn(C2CCCCC2)c2nc(Nc3ccc(CCN4CCCC4=O)cc3)ncc2c1=O [Cpd 13, 8-cyclohexyl-5-oxo-2-{4-[2-(2-oxo-pyrrolidin-1-yl)-ethyl]-phenylamino}-5,8-dihydro-pyrido[2,3-d]pyrimidine-6-carboxylic acid methoxy-amide] | 1.6 nM
2 | CONC(=O)c1cn(-c2ccc3c(c2)CCC3)c2nc(Nc3cccc(CCN4CCN(S(C)(=O)=O)CC4)c3)ncc2c1=O [Cpd 203, 8-indan-5-yl-2-{3-[2-(4-methanesulfonyl-piperazin-1-yl)-ethyl]-phenylamino}-5-oxo-5,8-dihydro-pyrido[2,3-d]pyrimidine-6-carboxylic acid methoxy-amide] | 1.4 nM
3 | CONC(=O)c1cn(-c2ccc3c(c2)CCC3)c2nc(Nc3ccc([C@@]4(O)CCN(C)C[C@@H]4O)cc3)ncc2c1=O [Cpd 236, 2-{4-[(3S,4S)-(3,4-dihydroxy-1-methyl-piperidin-4-yl)]-phenylamino}-8-indan-5-yl-5-oxo-5,8-dihydro-pyrido[2,3-d]pyrimidine-6-carboxylic acid methoxy-amide] | 0.47 nM
4 | CCONC(=O)c1cn(C2CCCCC2)c2nc(Nc3ccc(C[C@H]4COC(=O)N4)cc3)ncc2c1=O [Cpd 23, (S)-8-cyclohexyl-5-oxo-2-[4-(2-oxo-oxazolidin-4-ylmethyl)-phenylamino]-5,8-dihydro-pyrido[2,3-d]pyrimidine-6-carboxylic acid ethoxy-amide] | 3 nM
5 | CCONC(=O)c1cn(C2CCCCC2)c2nc(Nc3ccc(C4CCNCC4)cc3)ncc2c1=O [Cpd 27, 8-cyclohexyl-5-oxo-2-(4-piperidin-4-yl-phenylamino)-5,8-dihydro-pyrido[2,3-d]pyrimidine-6-carboxylic acid ethoxy-amide] | 1.6 nM
6 | CONC(=O)c1cn(C2CCCC2)c2nc(Nc3ccc(CCN4CCCC4=O)cc3)ncc2c1=O [Cpd 38, 8-cyclopentyl-5-oxo-2-{4-[2-(2-oxo-pyrrolidin-1-yl)-ethyl]-phenylamino}-5,8-dihydro-pyrido[2,3-d]pyrimidine-6-carboxylic acid methoxy-amide] | 2 nM
7 | CONC(=O)c1cn(-c2ccc3c(c2)CCC3)c2nc(Nc3ccc(OC4CN5CCC4CC5)cc3)ncc2c1=O (stereo not shown) [Cpd 264, 2-[4-(1-aza-bicyclo[2.2.2]oct-3-yloxy)-phenylamino]-8-indan-5-yl-5-oxo-5,8-dihydro-pyrido[2,3-d]pyrimidine-6-carboxylic acid methoxy-amide] | 0.38 nM
8 | CONC(=O)c1cn(-c2ccc3c(c2)CCC3)c2nc(Nc3cccc(N4CCN(S(C)(=O)=O)CC4)c3)ncc2c1=O [Cpd 201, 8-indan-5-yl-2-[3-(4-methanesulfonyl-piperazin-1-yl)-phenylamino]-5-oxo-5,8-dihydro-pyrido[2,3-d]pyrimidine-6-carboxylic acid methoxy-amide] | 1.8 nM
9 | CCONC(=O)c1cn(C2CCCC2)c2nc(Nc3ccc(C4CCN(C(C)=O)CC4)cc3)ncc2c1=O [Cpd 47, 2-[4-(1-acetyl-piperidin-4-yl)-phenylamino]-8-cyclopentyl-5-oxo-5,8-dihydro-pyrido[2,3-d]pyrimidine-6-carboxylic acid ethoxy-amide] | 1.9 nM
10 | CONC(=O)c1cn(-c2ccc3c(c2)CCC3)c2nc(Nc3cccc(C4CCN(C)CC4)c3)ncc2c1=O [Cpd 273, 8-indan-5-yl-2-[3-(1-methyl-piperidin-4-yl)-phenylamino]-5-oxo-5,8-dihydro-pyrido[2,3-d]pyrimidine-6-carboxylic acid methoxy-amide] | 1 nM
11 | NC(=O)c1cn(-c2ccc3c(c2)CCC3)c2nc(Nc3cccc(C(=O)N4CCOCC4)c3)ncc2c1=O [Cpd 120, 8-indan-5-yl-2-[3-(morpholine-4-carbonyl)-phenylamino]-5-oxo-5,8-dihydro-pyrido[2,3-d]pyrimidine-6-carboxylic acid amide] | 17 nM
12 | CC(C)NC(=O)c1cn(-c2ccc3c(c2)CCC3)c2nc(Nc3cccc(N4CCNCC4)c3)ncc2c1=O [Cpd 1, 8-indan-5-yl-5-oxo-2-(3-piperazin-1-yl-phenylamino)-5,8-dihydro-pyrido[2,3-d]pyrimidine-6-carboxylic acid isopropylamide] | 4.5 nM
13 | CONC(=O)c1cn(-c2ccc3c(c2)CCC3)c2nc(Nc3ccc(CCN4C5CCC4CC5)cc3)ncc2c1=O [Cpd 110, 2-{4-[2-(7-aza-bicyclo[2.2.1]hept-7-yl)-ethyl]-phenylamino}-8-indan-5-yl-5-oxo-5,8-dihydro-pyrido[2,3-d]pyrimidine-6-carboxylic acid methoxy-amide] | 0.46 nM
14 | CCONC(=O)c1cn(C2CCCC2)c2nc(Nc3ccc(CCN4CCN(C)CC4)cc3)ncc2c1=O [Cpd 49, 8-cyclopentyl-2-{4-[2-(4-methyl-piperazin-1-yl)-ethyl]-phenylamino}-5-oxo-5,8-dihydro-pyrido[2,3-d]pyrimidine-6-carboxylic acid ethoxy-amide] | 1.7 nM

Next, values leading:

Row | IC50 | Compound
15 | 2.1 nM | CONC(=O)c1cn(-c2ccc3c(c2)CCC3)c2nc(Nc3cccc(-n4cncn4)c3)ncc2c1=O [Cpd 174, 8-indan-5-yl-5-oxo-2-(3-[1,2,4]triazol-1-yl-phenylamino)-5,8-dihydro-pyrido[2,3-d]pyrimidine-6-carboxylic acid methoxy-amide]
16 | 1.1 nM | CONC(=O)c1cn(-c2ccc3c(c2)CCC3)c2nc(Nc3cccc(S(=O)(=O)CCN(C)C)c3)ncc2c1=O [Cpd 230, 2-[3-(2-dimethylamino-ethanesulfonyl)-phenylamino]-8-indan-5-yl-5-oxo-5,8-dihydro-pyrido[2,3-d]pyrimidine-6-carboxylic acid methoxy-amide]
17 | 1 nM | CONC(=O)c1cn(-c2ccc3c(c2)CCC3)c2nc(Nc3ccc(CCN4CCC(=O)CC4)cc3)ncc2c1=O [Cpd 83, 8-indan-5-yl-5-oxo-2-{4-[2-(4-oxo-piperidin-1-yl)-ethyl]-phenylamino}-5,8-dihydro-pyrido[2,3-d]pyrimidine-6-carboxylic acid methoxy-amide]
18 | 0.4 nM | CONC(=O)c1cn(-c2ccc3c(c2)CCC3)c2nc(Nc3ccc(CCN4CCNCC4)cc3)ncc2c1=O [Cpd 144, 8-indan-5-yl-5-oxo-2-[4-(2-piperazin-1-yl-ethyl)-phenylamino]-5,8-dihydro-pyrido[2,3-d]pyrimidine-6-carboxylic acid methoxy-amide]
19 | 0.4 nM | CCCN1CCC(c2ccc(Nc3ncc4c(=O)c(C(=O)NOC)cn(-c5ccc6c(c5)CCC6)c4n3)cc2)CC1 [Cpd 298, 8-indan-5-yl-5-oxo-2-[4-(1-propyl-piperidin-4-yl)-phenylamino]-5,8-dihydro-pyrido[2,3-d]pyrimidine-6-carboxylic acid methoxy-amide]
20 | 0.4 nM | CCc1ccc(-n2cc(C(=O)NOC)c(=O)c3cnc(Nc4ccc(OC5CCNCC5)cc4)nc32)cc1 [Cpd 307, 8-(4-ethyl-phenyl)-5-oxo-2-[4-(piperidin-4-yloxy)-phenylamino]-5,8-dihydro-pyrido[2,3-d]pyrimidine-6-carboxylic acid methoxy-amide]
21 | 0.8 nM | CCc1ccc(-n2cc(C(=O)NOC)c(=O)c3cnc(Nc4ccc(O[C@@H]5O[C@H](CO)[C@@H](O)[C@H](O)[C@@H]5O)cc4)nc32)cc1 [Cpd 296, 8-(4-ethyl-phenyl)-5-oxo-2-{4-[(2S,3S,4S,5S,6R)(3,4,5-trihydroxy-6-hydroxymethyl-tetrahydro-pyran-2-yloxy)]-phenylamino}-5,8-dihydro-pyrido[2,3-d]pyrimidine-6-carboxylic acid methoxy-amide]
22 | 2 nM | CONC(=O)c1cn(-c2ccc3c(c2)CCC3)c2nc(Nc3ccc4cc[nH]c4c3)ncc2c1=O [Cpd 289, 8-indan-5-yl-2-(1H-indol-6-ylamino)-5-oxo-5,8-dihydro-pyrido[2,3-d]pyrimidine-6-carboxylic acid methoxy-amide]
23 | 0.4 nM | CCONC(=O)c1cn(-c2ccc(CC)cc2)c2nc(Nc3ccc(C4CCN(CCO)CC4)cc3)ncc2c1=O [Cpd 183, 8-(4-ethyl-phenyl)-2-{4-[1-(2-hydroxy-ethyl)-piperidin-4-yl]-phenylamino}-5-oxo-5,8-dihydro-pyrido[2,3-d]pyrimidine-6-carboxylic acid ethoxy-amide]
24 | 1 nM | CONC(=O)c1cn(-c2ccc3ccccc3c2)c2nc(Nc3ccc(C4CCN(C)CC4)cc3)ncc2c1=O [Cpd 303, 2-[4-(1-methyl-piperidin-4-yl)-phenylamino]-8-naphthalen-2-yl-5-oxo-5,8-dihydro-pyrido[2,3-d]pyrimidine-6-carboxylic acid methoxy-amide]
25 | 0.5 nM | CCc1ccc(-n2cc(C(=O)NOC)c(=O)c3cnc(Nc4cccc(N5CCOCC5)c4)nc32)cc1 [Cpd 320, 8-(4-ethyl-phenyl)-2-(3-morpholin-4-yl-phenylamino)-5-oxo-5,8-dihydro-pyrido[2,3-d]pyrimidine-6-carboxylic acid methoxy-amide]
26 | 0.5 nM | CCONC(=O)c1cn(-c2ccc(C)c(C)c2)c2nc(Nc3ccc(CCN4CCN(C)CC4)cc3)ncc2c1=O [Cpd 53, 8-(3,4-dimethyl-phenyl)-2-{4-[2-(4-methyl-piperazin-1-yl)-ethyl]-phenylamino}-5-oxo-5,8-dihydro-pyrido[2,3-d]pyrimidine-6-carboxylic acid ethoxy-amide]
27 | 1.7 nM | CCONC(=O)c1cn(-c2ccc3c(c2)CCC3)c2nc(Nc3ccc(C4CCN(C(C)=O)CC4)cc3)ncc2c1=O [Cpd 70, 2-[4-(1-acetyl-piperidin-4-yl)-phenylamino]-8-indan-5-yl-5-oxo-5,8-dihydro-pyrido[2,3-d]pyrimidine-6-carboxylic acid ethoxy-amide]
28 | 0.94 nM | CONC(=O)c1cn(-c2ccc3c(c2)CCC3)c2nc(Nc3ccc(CCN4CCN(CC(=O)O)CC4)cc3)ncc2c1=O [Cpd 147, (4-{2-[4-(8-indan-5-yl-6-methoxycarbamoyl-5-oxo-5,8-dihydro-pyrido[2,3-d]pyrimidin-2-ylamino)-phenyl]-ethyl}-piperazin-1-yl)-acetic acid]
